Results as given in ChEMBL document CHEMBL1125793 (J Med Chem, 1991).

The compounds below were run against T1, Angiotensin II receptor (Rattus norvegicus, UniProt P29089+P25095+P35351) (assay: Binding affinity against Angiotensin II receptor, from rat adrenal gland).
T1 sequence (P29089 whole entry): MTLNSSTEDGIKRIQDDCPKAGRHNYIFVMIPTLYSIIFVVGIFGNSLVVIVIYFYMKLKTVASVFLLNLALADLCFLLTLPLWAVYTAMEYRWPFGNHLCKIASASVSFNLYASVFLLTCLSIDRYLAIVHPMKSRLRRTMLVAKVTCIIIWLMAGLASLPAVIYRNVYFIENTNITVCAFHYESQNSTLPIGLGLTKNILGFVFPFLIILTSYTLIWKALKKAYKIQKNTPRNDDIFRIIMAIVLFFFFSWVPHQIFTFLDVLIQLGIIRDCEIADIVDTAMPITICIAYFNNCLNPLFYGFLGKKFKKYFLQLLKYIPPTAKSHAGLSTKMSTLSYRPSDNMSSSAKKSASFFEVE
T1 sequence (P25095 whole entry): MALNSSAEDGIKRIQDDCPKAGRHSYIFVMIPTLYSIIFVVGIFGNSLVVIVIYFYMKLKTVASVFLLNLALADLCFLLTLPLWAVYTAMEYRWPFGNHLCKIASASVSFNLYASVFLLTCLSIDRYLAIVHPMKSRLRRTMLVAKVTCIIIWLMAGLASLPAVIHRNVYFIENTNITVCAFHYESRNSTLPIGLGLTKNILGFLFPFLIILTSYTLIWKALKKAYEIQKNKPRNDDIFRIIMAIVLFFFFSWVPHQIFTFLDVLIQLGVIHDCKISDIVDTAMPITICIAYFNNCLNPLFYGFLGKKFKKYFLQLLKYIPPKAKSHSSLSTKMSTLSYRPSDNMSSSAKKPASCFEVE
T1 sequence (P35351 whole entry): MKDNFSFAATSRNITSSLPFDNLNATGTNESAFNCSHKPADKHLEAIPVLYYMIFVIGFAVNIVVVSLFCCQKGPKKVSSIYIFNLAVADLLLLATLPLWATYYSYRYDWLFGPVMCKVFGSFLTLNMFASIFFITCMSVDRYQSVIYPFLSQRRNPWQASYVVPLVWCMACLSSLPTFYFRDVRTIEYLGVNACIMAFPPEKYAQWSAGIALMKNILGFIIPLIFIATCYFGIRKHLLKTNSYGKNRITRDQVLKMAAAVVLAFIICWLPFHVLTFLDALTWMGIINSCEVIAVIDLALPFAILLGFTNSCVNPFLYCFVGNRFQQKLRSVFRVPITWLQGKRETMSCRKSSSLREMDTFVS
Assay type: tissue-based
With `O=C(O)[C@@H]1Cc2c(ncn2Cc2cccc(Cl)c2)CN1C(=O)C(c1ccccc1)c1ccccc1` the IC50 was 1200 nM.
`Cc1cc(Cn2cnc3c2C[C@@H](C(=O)O)N(C(=O)C(c2ccccc2)c2ccccc2)C3)ccc1O` gave an IC50 of 56 nM.
`O=C(O)C1Cc2c(ncn2Cc2ccccc2)CN1C(=O)C(c1ccccc1)C1CCCC1` (centres undefined) was tested, and the IC50 was 71 nM.
`COc1ccc(Cn2cnc3c2C[C@@H](C(=O)O)N(C(=O)C(c2ccccc2)c2ccccc2)C3)cc1F` showed an IC50 of 260 nM.
For `O=C(O)C1Cc2c(ncn2Cc2ccccc2)CN1C(=O)CC(c1ccccc1)c1ccccc1` (centres undefined), the IC50 was 1200 nM.
`Cc1ccc(Cn2cnc3c2C[C@@H](C(=O)O)N(C(=O)C(c2ccccc2)c2ccccc2)C3)cc1C` showed an IC50 of 300 nM.
`COc1ccc(Cn2cnc3c2C[C@@H](C(=O)O)N(C(=O)C(C)(c2ccccc2)c2ccccc2)C3)cc1C` showed an IC50 of 9500 nM.
`O=C(C(c1ccccc1)C1CCCC1)N1Cc2ncn(Cc3ccccc3)c2CC1CO` (centres undefined) showed an IC50 of 6700 nM.
`COc1ccc(Cn2cnc3c2C[C@@H](C(=O)O)N(C(=O)C(Cc2ccccc2)c2ccccc2)C3)cc1C` (some centres undefined) showed an IC50 of 3500 nM.
Work on `O=C(O)C1Cc2c(ncn2Cc2ccccc2)CN1C(=O)CCc1ccccc1` (centres undefined) yielded an IC50 of 13000 nM.
Work on `Cc1cc(C)cc(Cn2cnc3c2C[C@@H](C(=O)O)N(C(=O)C(c2ccccc2)c2ccccc2)C3)c1` yielded an IC50 of 140 nM.
In the case of `COc1ccc(Cn2cnc3c2C[C@@H](C(=O)O)N(C(=O)C(c2ccccc2)C2CCCC2)C3)cc1C` (some centres undefined), the IC50 is reported as 67 nM.
For `COc1ccc(Cn2cnc3c2C[C@@H](C(=O)O)N(C(=O)C(c2ccc(F)cc2)c2ccc(F)cc2)C3)cc1C`, the IC50 was 2300 nM.
In the case of `COc1ccc(Cn2cnc3c2C[C@@H](C(=O)O)N(C(=O)C(c2ccccc2)c2ccccc2)C3)cc1C`, the IC50 is reported as 70 nM.
Compound `CCN(CC)c1ccc(Cn2cnc3c2C[C@@H](C(=O)O)N(C(=O)C(c2ccccc2)c2ccccc2)C3)cc1` has an IC50 of 290 nM.
`COc1ccc(Cn2cnc3c2C[C@@H](C(=O)O)N(C(=O)CC24CC5CC(CC(C5)C2)C4)C3)cc1C` showed an IC50 of 28000 nM.
For `CN(C)c1ccc(Cn2cnc3c2C[C@@H](C(=O)O)N(C(=O)C(c2ccccc2)c2ccccc2)C3)cc1`, the IC50 was 85 nM.
With `COC(=O)C1Cc2c(ncn2Cc2ccc(N(C)C)c(C)c2)CN1C(=O)C(c1ccccc1)c1ccccc1` (centres undefined) the IC50 was 350 nM.
`CN(Cc1ccccc1)C(=O)N1Cc2ncn(Cc3ccccc3)c2CC1C(=O)O` (centres undefined) showed an IC50 of 4100 nM.
With `O=C(O)[C@@H]1Cc2c(ncn2CCc2ccccc2)CN1C(=O)C(c1ccccc1)c1ccccc1` the IC50 was 240 nM.
In the case of `COc1ccc(Cn2cnc3c2CCN(C(=O)C(c2ccccc2)c2ccccc2)C3)cc1C`, the IC50 is reported as 4400 nM.
In the case of `O=C(O)C1Cc2c(ncn2Cc2ccccc2)CN1S(=O)(=O)Cc1ccccc1` (centres undefined), the IC50 is reported as 19000 nM.
`COc1ccc(Cn2cnc3c2C[C@@H](C(=O)O)N(C(=O)CC(c2ccccc2)c2ccccc2)C3)cc1C` gave an IC50 of 4200 nM.
In the case of `O=C(O)C1Cc2c(ncn2Cc2ccccc2)CN1C(=O)Oc1ccccc1` (centres undefined), the IC50 is reported as 4600 nM.
`COc1ccc(Cn2cnc3c2C[C@@H](C(=O)O)N(C(=O)C(c2ccccc2)c2ccccc2)C3)cc1` showed an IC50 of 290 nM.
For `O=C(O)[C@@H]1Cc2c(ncn2Cc2cccnc2)CN1C(=O)C(c1ccccc1)c1ccccc1`, the IC50 was 120 nM.
`O=C(O)[C@@H]1Cc2c(ncn2C(c2ccccc2)c2ccccc2)CN1C(=O)C(c1ccccc1)c1ccccc1` was tested, and the IC50 was 110 nM.
Compound `O=C(O)C1Cc2c(ncn2Cc2ccccc2)CN1C(=O)C(c1ccc([N+](=O)[O-])cc1)c1ccc([N+](=O)[O-])cc1` (centres undefined) has an IC50 of 13000 nM.
`O=C(C(c1ccccc1)c1ccccc1)N1Cc2ncn(Cc3ccccc3)c2CC1CO` (centres undefined) showed an IC50 of 2100 nM.
`Cc1cc(Cn2cnc3c2C[C@H](C(=O)O)N(C(=O)C(c2ccccc2)c2ccccc2)C3)ccc1N(C)C.O` was tested, and the IC50 was 97 nM.
`COc1ccc(Cn2cnc3c2C[C@@H](C(=O)O)N(C(=O)Cc2ccccc2)C3)cc1C` was tested, and the IC50 was 530 nM.
With `COc1ccc(Cn2cnc3c2C[C@@H](C(=O)O)N(C(=O)/C=C\c2ccccc2)C3)cc1C` the IC50 was 2200 nM.
In the case of `COc1ccc(Cn2cnc3c2C[C@@H](C(=O)O)N(C(=O)C2(c4ccccc4)CCCC2)C3)cc1C`, the IC50 is reported as 840 nM.
`CN(C(=O)N1Cc2ncn(Cc3ccccc3)c2CC1C(=O)O)c1ccccc1` (stereo in doubt; 3) showed an IC50 of 1200 nM.
For `O=C(O)C1Cc2c(ncn2Cc2ccccc2)CN1C(=O)NCc1ccccc1` (centres undefined), the IC50 was 11000 nM.
Work on `CC(C)NC(=O)N1Cc2ncn(Cc3ccccc3)c2CC1C(=O)O` (centres undefined) yielded an IC50 of 21000 nM.
In the case of `O=C(O)C1Cc2c(ncn2Cc2ccccc2)CN1C(=O)C(c1ccccc1)c1ccccc1` (stereo in doubt; 18), the IC50 is reported as 1000 nM.
Compound `O=C(O)[C@@H]1Cc2c(ncn2Cc2ccc([N+](=O)[O-])cc2)CN1C(=O)C(c1ccccc1)c1ccccc1` has an IC50 of 610 nM.
In the case of `O=C(C(=O)N1Cc2ncn(Cc3ccccc3)c2CC1C(=O)O)c1ccccc1` (centres undefined), the IC50 is reported as 2400 nM.
Compound `O=C(O)C1Cc2c(ncn2Cc2ccccc2)CN1C(=O)Cc1ccccc1` (stereo in doubt; 14a) has an IC50 of 740 nM.
In the case of `COc1ccc(Cn2cnc3c2CC(CO)N(C(=O)N(C)c2ccccc2)C3)cc1C` (centres undefined), the IC50 is reported as 520 nM.
Compound `O=C(O)[C@@H]1Cc2c(ncn2Cc2cccc(Br)c2)CN1C(=O)C(c1ccccc1)c1ccccc1` has an IC50 of 650 nM.
Compound `O=C(O)C1Cc2c(ncn2Cc2ccccc2)CN1C(=O)/C=C/c1ccccc1` (centres undefined) has an IC50 of 2500 nM.
`COc1ccc(C(C(=O)N2Cc3ncn(Cc4ccccc4)c3CC2C(=O)O)c2ccc(OC)cc2)cc1` (centres undefined) showed an IC50 of 610 nM.
`COC(=O)C1Cc2c(ncn2Cc2ccc([N+](=O)[O-])c(C)c2)CN1C(=O)C(c1ccccc1)c1ccccc1` (centres undefined) gave an IC50 of 5100 nM.
Compound `CN(C(=O)N1Cc2ncn(Cc3ccccc3)c2CC1C(=O)O)c1ccccc1` (stereo in doubt; 3a) has an IC50 of 1100 nM.
`COc1cccc(Cn2cnc3c2C[C@@H](C(=O)O)N(C(=O)C(c2ccccc2)c2ccccc2)C3)c1` was tested, and the IC50 was 120 nM.
`O=C(O)C1Cc2c(ncn2Cc2ccccc2)CN1C(=O)Cc1ccccc1` (stereo in doubt; 14) gave an IC50 of 1400 nM.
In the case of `CNC(=O)Nc1ccc(Cn2cnc3c2C[C@@H](C(=O)O)N(C(=O)C(c2ccccc2)c2ccccc2)C3)cc1C`, the IC50 is reported as 44 nM.
`COc1ccc(C)cc1Cn1cnc2c1C[C@@H](C(=O)O)N(C(=O)C(c1ccccc1)c1ccccc1)C2` gave an IC50 of 720 nM.
Work on `Nc1ccc(Cn2cnc3c2C[C@@H](C(=O)O)N(C(=O)C(c2ccccc2)c2ccccc2)C3)cc1` yielded an IC50 of 150 nM.
With `COc1ccc(Cn2cnc3c2C[C@@H](C(=O)O)N(C(=O)CC2CCCCC2)C3)cc1C` the IC50 was 2000 nM.
With `COc1ccc(Cn2cnc3c2C[C@@H](C(=O)O)N(C(=O)C(c2ccccc2)c2ccccc2)C3)cc1[N+](=O)[O-]` the IC50 was 51 nM.
`O=C(O)C1Cc2c(ncn2Cc2ccccc2)CN1C(=O)COc1ccccc1` (centres undefined) was tested, and the IC50 was 4000 nM.
`CC(=O)Nc1ccc(Cn2cnc3c2C[C@@H](C(=O)O)N(C(=O)C(c2ccccc2)c2ccccc2)C3)cc1C` showed an IC50 of 89 nM.
Compound `Cc1cc(Cn2cnc3c2C[C@@H](C(=O)O)N(C(=O)C(c2ccccc2)c2ccccc2)C3)ccc1[N+](=O)[O-]` has an IC50 of 290 nM.
For `O=C(O)[C@H]1Cc2c(ncn2Cc2ccccc2)CN1C(=O)C(c1ccccc1)c1ccccc1`, the IC50 was 1200 nM.
In the case of `O=C(O)[C@@H]1Cc2c(ncn2Cc2ccc(F)cc2)CN1C(=O)C(c1ccccc1)c1ccccc1`, the IC50 is reported as 450 nM.
Compound `COc1ccc(Cn2cnc3c2C[C@@H](C(=O)O)N(C(=O)C(c2ccc(C)cc2)c2ccc(C)cc2)C3)cc1C` has an IC50 of 510 nM.
`O=C(O)C1Cc2c(ncn2Cc2ccccc2)CN1C(=O)C(c1ccc(F)cc1)c1ccc(F)cc1` (centres undefined) showed an IC50 of 2100 nM.
In the case of `COC(=O)C1Cc2c(ncn2Cc2ccccc2)CN1C(=O)C(c1ccccc1)c1ccccc1` (centres undefined), the IC50 is reported as 8800 nM.
With `CC(=O)Nc1ccc(Cn2cnc3c2C[C@@H](C(=O)O)N(C(=O)C(c2ccccc2)c2ccccc2)C3)cc1` the IC50 was 350 nM.
`COc1ccc(C(C(=O)N2Cc3ncn(Cc4ccc(OC)c(C)c4)c3C[C@H]2C(=O)O)c2ccc(OC)cc2)cc1` showed an IC50 of 2000 nM.
In the case of `CC(c1ccccc1)n1cnc2c1C[C@@H](C(=O)O)N(C(=O)C(c1ccccc1)c1ccccc1)C2` (some centres undefined), the IC50 is reported as 1100 nM.
Work on `Cc1ccc(C(C(=O)N2Cc3ncn(Cc4ccccc4)c3CC2C(=O)O)c2ccc(C)cc2)cc1` (centres undefined) yielded an IC50 of 1300 nM.
Compound `CCc1cc(Cn2cnc3c2C[C@@H](C(=O)O)N(C(=O)C(c2ccccc2)c2ccccc2)C3)ccc1OC` has an IC50 of 50 nM.
With `COc1ccc(Cn2cnc3c2C[C@@H](C(=O)O)N(C(=O)C(c2ccc([N+](=O)[O-])cc2)c2ccc([N+](=O)[O-])cc2)C3)cc1C` the IC50 was 13000 nM.
In the case of `COc1ccc(Cn2cnc3c2C[C@@H](C(=O)O)N(C(=O)C(c2ccccc2)c2ccccc2)C3)cc1OC`, the IC50 is reported as 98 nM.
In the case of `O=C(O)[C@@H]1Cc2c(ncn2Cc2cccc(C(F)(F)F)c2)CN1C(=O)C(c1ccccc1)c1ccccc1`, the IC50 is reported as 460 nM.
